Measured values taken from US20210369684A1 (MOUNT TAM THERAPEUTICS, INC., priority 2018, published 2021).
pIC50: −log10 of the molar value. Values joined by “and” are separate entries in the source; they are usually repeats but may differ in a detail not shown here. Equal values may be shown once.

Assays:
6-OHDA injected mice [1] = experiment: Anti-TH immunohistochemistry, 6-OHDA-induced striatal denervation; format: in vivo, mouse
Procedure: Immunohistochemistry analysis using anti-tyrosine hydroxylase (TH) antibody was performed in mouse midbrain sections to quantify 6-OHDA-induced striatal denervation in mice injected with 6-OHDA and non-injected (control) sides of the brain. […] In contrast, both the 6-OHDA/rapamycin-treated and the 6-OHDA/Formula II-treated sides of the brain show increased staining with the anti-TH antibody, as indicated by the dark shading in those figures. FIG. 3B presents the mean and standard error of the mean (SEM) of the integrated density of anti-TH antibody staining in the striatum, as well as statistical analysis of the results for the groups of mice.

TORC1 = biological target: T1, TORC1 (Homo sapiens, UniProt P42345+P62942); experiment: IC50 in PC3 cells, TORC1; format: cell-based
T1 construct: endogenous in cells; host or cells: PC3 cells

6-OHDA injected mice [2] = experiment: 6-OHDA cylinder test (motor performance, contralateral touches); format: in vivo, mouse; settings: 10 mg/kg, FIG. 2B
Procedure: An analysis of the neuroprotective effects of the compound of Formula II on motor performance was performed using the 6-OHDA cylinder test (FIG. 2A) which evaluates spontaneous motor changes associated with dopamine depletion in the striatum of 6-OHDA injected mice. […] Control mice were administered the vehicle control only. […] The data is presented in FIG. 2B as mean and standard error of the mean (SEM). Statistical analyses as compared to baseline mice were performed using the one-way Anova test (*: p<0.05; n.s.: not significant). […] Data is presented as mean and SEM. Statistical analyses were performed using One-way Anova test (*: p<0.05; ***: p<0.001. n.s.: not significant.)

[3] = Whole blood concentrations after IP administration to mice (LC-MS/MS); format: in vivo, mouse; settings: 2 mg/kg IP QD x 3 days; for Formula II Concentrations in Mouse Whole Blood: individual animals 7, 8, 9
Procedure: Shown below are whole blood concentrations following administration of the compound of Formula II to mice. The compound of Formula II was administered to mice at 2 mg/kg or 10 mg/kg for three days and the concentration of the compound in whole blood determined. These determinations were made using protein precipitation, liquid chromatography (LC), and mass spectrometry (MS/MS). Ten μl aliquots of whole blood and matrix calibration standards were distributed in a 96-well plate; 10 μl aliquots of blank matrix for matrix blanks and control blanks were included as controls. Ten μl of water was added to each sample followed by vortexing. One hundred sixty […] of internal standard was added to each sample except the matrix blanks; 160 μl 70:30 water:acetonitrile (ACN) was added to matrix blanks. This was followed by a […]. One hundred fifty μl of the resultant supernatant was then transferred to a new 96-well plate and the samples blown to dryness at 35° C. The resultant product was then reconstituted with 90 μl ACN.

## CO[C@H]1C[C@@H]2CC[C@@H](C)[C@@](O)(C2)C(=O)C(=O)N2CCCC[C@H]2C(=O)O[C@H]([C@H](C)C[C@H]2C[C@H]3C[C@@H]2C[C@@H]3O)CC(=O)[C@H](C)/C=C(\C)[C@@H](O)[C@@H](OC)C(=O)[C@H](C)C[C@H](C)/C=C/C=C/C=C/1C [Formula II, C37-[(1R,2S,4R,5S)-5-hyhroxybicyclo[2.2.1]heptane] rapamycin]
6-OHDA injected mice [1]; 6-OHDA injected mice, FIG. 3A
  6-OHDA-induced striatal denervation (anti-TH staining) compared with rapamycin: decreased 6-OHDA-induced denervation as compared to rapamycin
  6-OHDA-induced striatal denervation (anti-TH staining) compared with vehicle control: decreased 6-OHDA-induced denervation as compared to vehicle control
6-OHDA injected mice [1]; one-way ANOVA, FIG. 3B
  integrated density of anti-TH staining in striatum, p versus vehicle control: < 0.001
TORC1
  pIC50: 10.00
TORC1; from IC50 values
  TORC1/TORC2 Selectivity: 50x
6-OHDA injected mice [2]
  number of touches compared with rapamycin and vehicle control: clearly outperformed rapamycin and the vehicle control
6-OHDA injected mice [2]; three days pre-treatment before 6-OHDA (80 μg)
  contralateral touches, difference from baseline (one-way Anova): non-significant difference from baseline
[3]; Day 1, 1.00 h
  Formula II Concentrations in Mouse Whole Blood: 452 ng/mL and 380 ng/mL and 317 ng/mL
  Formula II Concentrations in Mouse Whole Blood, Mean: 383 ng/mL
[3]; Day 1, 2.00 h
  Formula II Concentrations in Mouse Whole Blood: 415 ng/mL (2×) and 378 ng/mL
  Formula II Concentrations in Mouse Whole Blood, Mean: 403 ng/mL
[3]; Day 1, 6.00 h
  Formula II Concentrations in Mouse Whole Blood: 382 ng/mL and 520 ng/mL and 490 ng/mL
  Formula II Concentrations in Mouse Whole Blood, Mean: 464 ng/mL
[3]; Day 1, 24.0 h
  Formula II Concentrations in Mouse Whole Blood: 12.2 ng/mL and 18.4 ng/mL and 14.7 ng/mL
  Formula II Concentrations in Mouse Whole Blood, Mean: 15.1 ng/mL
[3]; Day 2, 1.00 h
  Formula II Concentrations in Mouse Whole Blood: 481 ng/mL and 208 ng/mL and 524 ng/mL
  Formula II Concentrations in Mouse Whole Blood, Mean: 404 ng/mL
[3]; Day 2, 2.00 h
  Formula II Concentrations in Mouse Whole Blood: 501 ng/mL and 233 ng/mL and 570 ng/mL
  Formula II Concentrations in Mouse Whole Blood, Mean: 435 ng/mL
[3]; Day 2, 6.00 h
  Formula II Concentrations in Mouse Whole Blood: 553 ng/mL and 632 ng/mL and 552 ng/mL
  Formula II Concentrations in Mouse Whole Blood, Mean: 579 ng/mL
[3]; Day 2, 24.0 h
  Formula II Concentrations in Mouse Whole Blood: 15.3 ng/mL and 80.6 ng/mL and 35.2 ng/mL
  Formula II Concentrations in Mouse Whole Blood, Mean: 43.7 ng/mL
[3]; Day 3, 1.00 h
  Formula II Concentrations in Mouse Whole Blood: 628 ng/mL and 726 ng/mL and 600 ng/mL
  Formula II Concentrations in Mouse Whole Blood, Mean: 651 ng/mL
[3]; Day 3, 2.00 h
  Formula II Concentrations in Mouse Whole Blood: 478 ng/mL and 489 ng/mL and 535 ng/mL
  Formula II Concentrations in Mouse Whole Blood, Mean: 501 ng/mL
[3]; Day 3, 6.00 h
  Formula II Concentrations in Mouse Whole Blood: 416 ng/mL and 745 ng/mL and 604 ng/mL
  Formula II Concentrations in Mouse Whole Blood, Mean: 588 ng/mL
